Source: patent US10526345B2, “Compounds as GPR119 agonists” (Mankind Pharma Ltd., priority 2016, dated 2020)

Target: T1, hGPR119 (Homo sapiens, UniProt Q8TDV5)
T1 construct: expressed in transfected cells; host or cells: CHO
T1 sequence (Q8TDV5 1-335): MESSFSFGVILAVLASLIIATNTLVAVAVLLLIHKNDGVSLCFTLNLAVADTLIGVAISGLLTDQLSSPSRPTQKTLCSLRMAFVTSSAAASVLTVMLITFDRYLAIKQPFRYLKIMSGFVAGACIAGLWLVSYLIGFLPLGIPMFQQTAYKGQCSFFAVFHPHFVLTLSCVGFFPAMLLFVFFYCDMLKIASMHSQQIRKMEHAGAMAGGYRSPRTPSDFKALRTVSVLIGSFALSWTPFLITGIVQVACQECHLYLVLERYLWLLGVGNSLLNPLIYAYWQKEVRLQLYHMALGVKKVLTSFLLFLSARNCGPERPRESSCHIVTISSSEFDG
Test: In vitro cyclic AMP assay (Cisbio dynamic 2 HTRF kit) in CHO-hGPR119 cells
Type: cell-based
Details: 1 h, cAMP, compound at 1 μM, 60 min, read-out: Induction (% induction at 1 μM)
Description: cAMP measurements were done using Cisbio dynamic 2 HTRF kit according to the manufacturer's protocol. Briefly, CHO-hGPR119 cells were plated at a cell density of 5000 cells/well/5 μl into a white small volume 384 well plate. The final concentrations of IBMX and DMSO used were 1 mM and 0.5% respectively. Cells were treated with various concentrations of the test compound for 60 min at room temperature. Cells were lysed by buffer containing Anti-cAMP antibody and d2-cAMP reagents and incubated for 1 hour at room temperature. HTRF was measured at 337 nm excitation and emission wavelengths of 665 nm and 620 nm on a microplate reader (Flurostar, BMG Labtech). Graphpad prism software was utilized for EC50 determinations.

Row | activation at 1 µM [%] | SMILES
1 | 31 | CC(C)c1noc(N2CCC([C@H](C)Oc3nc4ccc(-c5ccc(C(=O)N(C)C)cc5)nc4s3)CC2)n1 [Compound 1045, (S)-4-(2-(1-(1-(3-isopropyl-1,2,4-oxadiazol-5-yl)piperidin-4-yl)ethoxy)thiazolo[5,4-b]pyridin-5-yl)-N,N-dimethylbenzamide]
2 | 74 | CCc1ccc(N2CCC(C(C)Oc3nc4ccc(-c5ccc(S(C)(=O)=O)cc5)nc4s3)CC2)nc1 (stereo not shown) [Compound 1087, 2-(1-(1-(5-ethylpyridin-2-yl)piperidine-4-yl)ethoxy)-5-(4-(methylsulfonyl)phenyl)thiazolo[5,4-b]pyridine]
3 | 45 | CC(C)c1noc(C2CCN(c3nc4ccc(-c5ccc(S(C)(=O)=O)cc5)nc4s3)CC2)n1 [Compound 1004, 3-isopropyl-5-(1-(5-(4-(methylsulfonyl)phenyl)thiazolo[5,4-b]pyridin-2-yl)piperidin-4-yl)-1,2,4-oxadiazole]
4 | 2 | CC(C)c1noc(N2CCC(COc3nc4ccc(-c5ccnc(F)c5)nc4s3)CC2)n1 [Compound 1086, 5-(4-(((5-(2-fluoropyridin-4-yl)thiazolo[5,4-b]pyridin-2-yl)oxy)methyl)piperidin-1-yl)-3-isopropyl-1,2,4-oxadiazole]
5 | 40 | CC(C)c1noc(N2CCC(C(C)Oc3nc4ccc(-c5ccnnc5)nc4s3)CC2)n1 (stereo not shown) [Compound 1134, 3-isopropyl-5-(4-(1-((5-(pyridazin-4-yl)thiazolo[5,4-b]pyridin-2-yl)oxy)ethyl)piperidin-1-yl)-1,2,4-oxadiazole]
6 | 58 | CC(C)c1noc(N2CCC(C(C)Oc3nc4ccc(-c5ccc(S(=O)(=O)C6CC6)cc5)nc4s3)CC2)n1 (stereo not shown) [Compound 1063, 5-(4-(1-((5-(4-(cyclopropylsulfonyl)phenyl)thiazolo[5,4-b]pyridin-2-yl)oxy)ethyl)piperidin-1-yl)-3-isopropyl-1,2,4-oxadiazole]
7 | 0.3 | CC(C)OC(=O)N1CC=C(CCOc2nc3ccc(-c4ccc(S(C)(=O)=O)cc4)nc3s2)CC1 [Compound 1034, isopropyl 4-(2-((5-(4-(methylsulfonyl)phenyl)thiazolo[5,4-b]pyridin-2-yl)oxy)ethyl)-5,6-dihydropyridine-1(2H)-carboxylate]
8 | 47 | COCC(Oc1nc2ccc(-c3ccc(S(C)(=O)=O)cc3)nc2s1)C1CCN(c2nc(C(C)C)no2)CC1 (stereo not shown) [Compound 1036, 3-isopropyl-5-(4-(2-methoxy-1-((5-(4-(methylsulfonyl)phenyl)thiazolo[5,4-b]pyridin-2-yl)oxy)ethyl)piperidin-1-yl)-1,2,4-oxadiazole]
9 | 14 | CC(C)c1noc(N2CCC(COc3nc4ccc(-c5ccncc5)nc4s3)CC2)n1 [Compound 1083, 3-isopropyl-5-(4-(((5-(pyridin-4-yl)thiazolo[5,4-b]pyridin-2-yl)oxy)methyl)piperidin-1-yl)-1,2,4-oxadiazole]
10 | 72 | CC(C)c1noc(N2CCC(C(C)Oc3nc4ccc(-c5ccc(Cl)nc5)nc4s3)CC2)n1 (stereo not shown) [Compound 1142, 2-(1-(1-(3-isopropyl-1,2,4-oxadiazol-5-yl)piperidin-4-yl)ethoxy)-5-(6-chloropyridin-3-yl)thiazolo[5,4-b]pyridine]
11 | 30 | CC(C)c1noc(N2CCC(C(C)Oc3nc4ccc(-c5cncs5)nc4s3)CC2)n1 (stereo not shown) [Compound 1121, 3-isopropyl-5-(4-(1-((5-(thiazol-5-yl)thiazolo[5,4-b]pyridin-2-yl)oxy)ethyl)piperidin-1-yl)-1,2,4-oxadiazole]
12 | 73 | CCCc1cnc(N2CCC(C(C)Oc3nc4ccc(-c5ccc(S(C)(=O)=O)cc5)nc4s3)CC2)nc1 (stereo not shown) [Compound 1053, 5-(4-(methyslulfonyl)phenyl)-2-(1-(1-(5-propylpyrimidin-2-yl)piperidin-4-yl)ethoxy)thiazolo[5,4-b]pyridine]
13 | 18 | Cc1cc(-c2ccc(S(C)(=O)=O)cc2)nc2sc(OC(C)C3CCN(c4nc(C(C)C)no4)CC3)nc12 (stereo not shown) [Compound 1037, 3-isopropyl-5-(4-(1-((7-methyl-5-(4-(methylsulfonyl)phenyl)thiazolo[5,4-b]pyridin-2-yl)oxy)ethyl)piperidin-1-yl)-1,2,4-oxadiazole]
14 | 73 | CC(Oc1nc2ccc(-c3ccc(S(C)(=O)=O)nc3)nc2s1)C1CCN(c2ncc(C3CC3)cn2)CC1 (stereo not shown) [Compound 1137, 2-(1-(1-(5-cyclopropylpyrimidin-2-yl)piperidin-4-yl)ethoxy)-5-(6-(methylsulfonyl)pyridin-3-yl)thiazolo[5,4-b]pyridine]
15 | 70 | CC(Oc1nc2ccc(-c3ccc(S(C)(=O)=O)nc3)nc2s1)C1CCN(c2ncc(C(F)(F)F)cn2)CC1 (stereo not shown) [Compound 1159, 2-(1-(1-(5-(trifluoromethyl)pyrimidin-2-yl)piperidin-4-yl)ethoxy)-5-(6-(methylsulfonyl)pyridin-3-yl)thiazolo[5,4-b]pyridine]
16 | 80 | CC(C)c1noc(N2CCC(C(C)Oc3nc4ccc(-c5cnc(S(C)(=O)=O)cn5)nc4s3)CC2)n1 (stereo not shown) [Compound 1158, 2-(1-(1-(3-isopropyl-1,2,4-oxadiazol-5-yl)piperidin-4-yl)ethoxy)-5-(5-(methylsulfonyl)pyrazin-2-yl)thiazolo[5,4-b]pyridine]
17 | 66 | CC(Oc1nc2ccc(-c3ccc(S(C)(=O)=O)nc3)nc2s1)C1CCN(c2cnc(Cl)cn2)CC1 (stereo not shown) [Compound 1151, 2-(1-(1-(5-chloropyrazin-2-yl)piperidin-4-yl)ethoxy)-5-(6-(methylsulfonyl)pyridin-3-yl)thiazolo[5,4-b]pyridine]
18 | 65 | CC(=O)N(C)c1ncc(-c2ccc3nc(OC(C)C4CCN(c5nc(C(C)C)no5)CC4)sc3n2)cn1 (stereo not shown) [Compound 1139, N-(5-(2-(1-(1-(3-isopropyl-1,2,4-oxadiazol-5-yl)piperidin-4-yl)ethoxy)thiazolo[5,4-b]pyridin-5-yl)pyrimidin-2-yl)-N-methylacetamide]
19 | 65 | CC(C)c1noc(N2CCC(C(C)Oc3nc4ccc(-c5ccc(S(C)(=O)=O)c(F)c5)nc4s3)CC2)n1 (stereo not shown) [Compound 1100, 5-(4-(1-((5-(3-fluoro-4-(methylsulfonyl)phenyl)thiazolo[5,4-b]pyridin-2-yl)oxy)ethyl)piperidin-1-yl)-3-isopropyl-1,2,4-oxadiazole]
20 | 50 | CC(C)c1noc(N2CCC(C(C)Oc3nc4ccc(-c5ccn(C)c(=O)c5)nc4s3)CC2)n1 (stereo not shown) [Compound 1127, 4-(2-(1-(1-(3-isopropyl-1,2,4-oxadiazol-5-yl)piperidin-4-yl)ethoxy)thiazolo[5,4-b]pyridin-5-yl)-1-methylpyridin-2(1H)-one]
21 | 11 | Cc1cc(-c2ccc(S(C)(=O)=O)cc2)nc2sc(OCC3CCN(c4nc(C(C)C)no4)CC3)nc12 [Compound 1038, 3-isopropyl-5-(4-(((7-methyl-5-(4-(methylsulfonyl)phenyl)thiazolo[5,4-b]pyridin-2-yl)oxy)methyl)piperidin-1-yl)-1,2,4-oxadiazole]
22 | 2 | CC(Oc1nc2ccc(-c3ccc(S(C)(=O)=O)cc3)nc2s1)C1CCN(C(=O)OC2(C)CC2)CC1 (stereo not shown) [Compound 1117, 1-methylcyclopropyl 4-(1-((5-(4-(methylsulfonyl)phenyl)thiazolo[5,4-b]pyridin-2-yl)oxy)ethyl)piperidine-1-carboxylate]
23 | 5 | CC(C)OC(=O)N1CCN(c2nc3ccc(-c4ccc(S(C)(=O)=O)cc4)nc3s2)CC1 [Compound 1012, isopropyl 4-(5-(4-(methylsulfonyl)phenyl)thiazolo[5,4-b]pyridin-2-yl)piperazine-1-carboxylate]
24 | 24 | CC(C)c1noc(N2CCC(C(C)Oc3nc4ccc(-c5ccc(S(C)(=O)=O)cc5F)nc4s3)CC2)n1 (stereo not shown) [Compound 1111, 5-(4-(1-((5-(2-fluoro-4-(methylsulfonyl)phenyl)thiazolo[5,4-b]pyridin-2-yl)oxy)ethyl)piperidin-1-yl)-3-isopropyl-1,2,4-oxadiazole]
25 | 43 | Cc1cc(S(C)(=O)=O)ccc1-c1ccc2nc(O[C@H](C)C3CCN(c4nc(C(C)C)no4)CC3)sc2n1 [Compound 1169, 2-((R)-1-(1-(3-isopropyl-1,2,4-oxadiazol-5-yl)piperidin-4-yl)ethoxy)-5-(2-methyl-4-(methylsulfonyl)phenyl)thiazolo[5,4-b]pyridine]
26 | 61 | CC(C)c1noc(N2CCC(C(C)Oc3nc4ccc(-c5ccc(N6CCCC6=O)nc5)nc4s3)CC2)n1 (stereo not shown) [Compound 1146, 1-(5-(2-(1-(1-(3-isopropyl-1,2,4-oxadiazol-5-yl)piperidin-4-yl)ethoxy)thiazolo[5,4-b]pyridin-5-yl)pyridin-2-yl)pyrrolidin-2-one]
27 | 40 | CC(Oc1nc2ccc(-c3ccc(S(C)(=O)=O)cc3)nc2s1)C1CCN(c2nc(C(F)(F)F)no2)CC1 (stereo not shown) [Compound 1131, 5-(4-(1-((5-(4-(methylsulfonyl)phenyl)thiazolo[5,4-b]pyridin-2-yl)oxy)ethyl)piperidin-1-yl)-3-(trifluoromethyl)-1,2,4-oxadiazole]

Same assay, conditions: cAMP

Row | EC50 [nM] | SMILES
28 | 50 to 100 | CCCc1cnc(N2CCC(C(C)Oc3nc4ccc(-c5ccc(S(C)(=O)=O)cc5)nc4s3)CC2)nc1 (stereo not shown) [Compound 1053, 5-(4-(methyslulfonyl)phenyl)-2-(1-(1-(5-propylpyrimidin-2-yl)piperidin-4-yl)ethoxy)thiazolo[5,4-b]pyridine]
